Assays:
[1] = target: T1, motor domain of human KSP (Eg 5, KNSL1) (Homo sapiens, UniProt P52732); assay: Assay for determining KSP activity (microtubule/KSP ATPase, Biomol Green); format: biochemical; conditions: read-out: In vitro activity (IC-50 - nm)
T1 construct: KSP motor protein (i.e., the KSP motor domain); made in house
T1 sequence (P52732 18-359 limits assumed): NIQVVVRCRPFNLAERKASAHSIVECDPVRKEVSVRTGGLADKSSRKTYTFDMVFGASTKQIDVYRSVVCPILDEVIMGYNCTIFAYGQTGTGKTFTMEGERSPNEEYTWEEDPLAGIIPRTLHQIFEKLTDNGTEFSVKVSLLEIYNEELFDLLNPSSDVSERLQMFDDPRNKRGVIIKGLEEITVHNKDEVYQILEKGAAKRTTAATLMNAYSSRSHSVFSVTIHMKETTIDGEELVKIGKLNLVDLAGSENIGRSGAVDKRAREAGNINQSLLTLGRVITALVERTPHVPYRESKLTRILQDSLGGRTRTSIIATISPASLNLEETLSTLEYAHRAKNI
Description: Purified microtubules obtained from bovine brain were purchased from Cytoskeleton Inc. (Denver, Colo., USA). The motor domain of human KSP (Eg 5, KNSL1) was cloned, expressed, and purified to greater than 95% homogeneity. Biomol Green™ was purchased from Affinity Research Products Ltd. (Matford Court, Exeter, Devon, United Kingdom). Microtubules and KSP motor protein (i.e., the KSP motor domain) were diluted in assay buffer (20 mM Tris-HCl (pH 7.5), 1 mM MgCl2, 10 mM DTT and 0.25 mg/mL BSA) to a final concentration of 35 μg/mL microtubules and 45 nM KSP. The microtubule/KSP mixture was then pre-incubated at 37° C. for 10 min to promote the binding of KSP to microtubules.
To each well of the testing plate (384-well plate) containing 1.25 μL of inhibitor or test compound in DMSO (or DMSO only, in the case of controls) were added 25 μL of ATP solution (ATP diluted to a concentration of 300 μM in assay buffer) and 25 μL of the above-described microtubule/KSP solution. The plates were incubated at RT for 1 hour. Following incubation, 65 μL of Biomol Green™ (a malachite green-based dye that detects the release of inorganic phosphate) was added to each well. The plates were incubated for an additional 5-10 minutes then the absorbance at 630 nm was determined using a Victor II plate reader. The amount of absorbance at 630 nm corresponded to the amount of KSP activity in the samples. The IC50 of each inhibitor or test compound was then determined based on the decrease in absorbance at 630 nm at each concentration, via nonlinear regression using either XLFit for Excel or Prism data analysis software by GraphPad Software Inc.

tumor cell lines = assay: Inhibition of cellular proliferation, CellTiter-Glo, 72 hours, all cell lines tested; format: cell-based; conditions: 72 hours of continuous compound exposure
From the text: Cell lines used were as follows: HCT-116 (National Cancer Institute's DCTF Tumor Repository, catalog #NCI-502568, Rockville, Md.), HCT-15 (National Cancer Institute's DCTF Tumor Repository, catalog#NCI-502711, Rockville, Md. available from American Type Tissue Collection, catalog #CLL-225), KB-3-1 (available from DSMZ, Deutsche Sammlung von Mikroorganismen und Zellkulturen GmbH (German Collection of Microorganisms and Cell Cultures—catalog number ACC 158), KB-V1 (available from DSMZ—catalog number ACC 149), AGS (available from American Type Culture Collection, Manassas Va., catalog number CRL-1739™), N87 (available from American Type Culture Collection, Manassas Va., catalog number CRL-5822), Hel92.1.7 (available from American Type Culture Collection, Manassas Va., catalog number TIB 180), K562 (available from American Type Culture Collection, Manassas Va., catalog number CRL-243™), MV4; 11 (American Tissue Culture Collection, Manassas Va., catalog number CRL-9591) and U937 (available from American Type Culture Collection, Manassas Va., catalog number CRL-1593.2).
Cells were plated in 96-well plates at densities of about 500 cells per well of a 96-well plate and allowed to grow for 24 hours. […] The amount of luminescence was determined for each well using a Wallac Trilux plate reader, which correlates with the number of cells per well. […]

CC(C)(C)[C@H](c1nc(-c2cc(F)ccc2F)cn1Cc1ccccc1)N(CC[C@H](N)CF)C(=O)CO [Compound IIa] gave an IC50 [1] of 0.8 nM and a GI50 (tumor cell lines) of 0.1 to 6.5 nM.
